For one substance, foam results results are on record in patent US8691255B2, “Method of producing high alcohol content foaming compositions with silicone-based surfactants” (Deb Worldwide Healthcare Inc., priority 2005, dated 2014).

A short description of this data set: Foam evaluation of the prepared solutions: foam produced or not, and foam description. It counts as physicochemical. The conditions noted are these: alone, 40% ethanol, 3% CAPB; compared with 60% v/v ethanol and less than 1.0% silicone-based surfactants. Here is the method: Examples 1 through 12 were prepared to illustrate the ability to produce alcohol-based disinfecting formulations which can be dispensed as foams using different surfactants and a solution of water and 50% ethanol. Examples 13 through 16 illustrate increasing concentrations of a silicone-based surfactant to produce foam with 40% ethanol. Examples 17 through 32 show increasing concentrations of ethanol with different silicone-based surfactants to produce foam. Examples 33 through 36 illustrate increasing concentrations of a silicone-based surfactant to produce acceptable foam at 62% ethanol. Examples 37 through 52 illustrate the ability to produce foam using different surfactants and a solution of 70% v/v Isopropanol. All parts and percentages are expressed by weight unless otherwise indicated.
The following examples were intended to evaluate the foaming ability of different groups of Silicon surfactants with different combinations of ethanol, n-propyl alcohol and Isopropyl alcohol. They were also designed to assess the effect in the after feel as well as in the foam quality of some emollients and humectants, lipids, and other cosmetic type desired ingredients to be used with a leave-on hand sanitizer product. […]
The solutions prepared, were evaluated as to whether foam was produced or not and if so, then the foam produced was described as follows: […]

For the substance Cocamidopropyl betaine, the foam results is on record as “unable to produce as good results”.
